Measured values published in article PMC4305287, “Two Novel α7 Nicotinic Acetylcholine Receptor Ligands: In Vitro Properties and Their Efficacy in Collagen-Induced Arthritis in Mice” (PLoS ONE, 2015).

How the values were obtained:
[1] = test system: collagen-induced arthritis; set-up: method as in PMID 19116908; settings: cited from earlier work
[2] = test system: T1, human α7 nAChR primed with PNU-120596; experiment: electrophysiology of oocytes primed with PNU-120596; format: biochemical
T1 construct: expressed in transfected cells; host or cells: Xenopus laevis oocytes injected with cRNA; clones from Dr. Jon Lindstrom (α7) and Dr. Millet Treinin (RIC-3)
Method: Each oocyte received two initial control applications of 300 μM ACh, followed by the experimental drug application, and subsequent control application of 300 μM ACh, unless otherwise indicated. Responses to experimental drug applications were determined relative to the preceding ACh control responses in order to normalize the data, compensating for the varying levels of channel expression among the oocytes. Responses for α7 nAChR were calculated as net charge, since peak currents inaccurately report the agonist concentration dependence of α7 nAChR-mediated responses. […] Imax, n, and the EC50 were all unconstrained for the fitting procedures except in the case of the ACh concentration-response curves.

microglia = test system: microglia; set-up: method as in PMID 22884467; settings: cited from earlier work
memory retention = test system: memory retention; set-up: method as in PMID 19845675; settings: cited from earlier work

## O=C1NCC2(CN3CCC2CC3)O1 (centres unmarked) [AR-R17779]
[1]
  effect on arthritis activity in CIA: ameliorates arthritis activity

## CCN1C[C@]2(COC(=O)c3ccccc3N3C(=O)C[C@H](C)C3=O)CC[C@H](OC)[C@@]34[C@@H]5C[C@H]6[C@H](OC)[C@@H]5[C@](O)(C[C@@H]6OC)[C@@](O)([C@@H](OC)[C@H]23)[C@@H]14 [MLA, methyllycaconitine]
[2]; after 60 s priming with 300 μM PNU-120596, PMP-311 1 μM, PMP-072 10 μM, MLA 10 μM
  ion channel response of PNU-120596 primed cells: fail to activate the primed cells

## O=C(c1ccc(-c2cccc(C(F)(F)F)c2)o1)N1CCN2CCC1CC2 [NS-6740]
microglia
  LPS-induced TNF release in microglia: reduce LPS-induced TNF release
Memory retention
  memory retention in a cognitive mouse model: unable to improve memory retention

## COc1cc(OC)c(NC(=O)Nc2cc(C)on2)cc1Cl [PNU-120596]
[2]; 300 μM for 60 s
  ion channel current during PNU-120596 application alone: No ion channel current was stimulated
